The source made the active and inactive calls. The calls are words filed in the database; no cut-off is given here.
Legend:
[1] = molecular target: Maternal embryonic leucine zipper kinase (Homo sapiens, UniProt Q14680); assay: Inhibition of human wild type MELK using RBER-CHKtide as substrate preincubated for 2 hrs followed by ATP addition and measured every 2 mins for […] by spectrophotometric analysis
[2] = molecular target: Tyrosine-protein kinase receptor TYRO3 (Homo sapiens, UniProt Q06418); assay: Inhibition of human wild type SKY using PolyEY as substrate preincubated for 2 hrs followed by ATP addition and measured every 2 mins for […] by spectrophotometric analysis
[3] = molecular target: Activin receptor type-1-like (Homo sapiens, UniProt P37023); assay: Inhibition of human wild type ALK1 using Casein as substrate preincubated for 2 hrs followed by ATP addition and measured every 2 mins for […] by spectrophotometric analysis
[4] = molecular target: Non-receptor tyrosine-protein kinase TYK2 (Homo sapiens, UniProt P29597); assay: Inhibition of human wild type TYK2 using Poly(Ala,Glu,Lys,Tyr)6:2:5:1 as substrate preincubated for 2 hrs followed by ATP addition and measured every 2 mins for […] by spectrophotometric analysis
[5] = molecular target: Dual specificity mitogen-activated protein kinase kinase 6 (Homo sapiens, UniProt P52564); assay: Inhibition of human wild type MKK6 using p38-alpha KA as substrate preincubated for 2 hrs followed by ATP addition and measured every 2 mins for […] by spectrophotometric analysis
[6] = molecular target: Bcr/Abl fusion protein (Homo sapiens) (UniProt P00519+P11274); assay: Inhibition of BCR-ABL1 phosphorylation in Ph+ B-ALL patient with […] mutation derived human Leukemia cell at 50 to 1000 nM by immunoblot analysis; assay type: cell-based; details: dose 50-1000 nM
[7] = molecular target: MAP kinase-interacting serine/threonine-protein kinase 1 (Homo sapiens, UniProt Q9BUB5); assay: Inhibition of human wild type MNK1 using RB-S6P as substrate preincubated for 2 hrs followed by ATP addition and measured every 2 mins for […] by spectrophotometric analysis
[8] = molecular target: MAP kinase-activated protein kinase 2 (Homo sapiens, UniProt P49137); assay: Inhibition of human wild type MAPKAPK2 using RBER-CHKtide as substrate preincubated for 2 hrs followed by ATP addition and measured every 2 mins for […] by spectrophotometric analysis
[9] = molecular target: Serine/threonine-protein kinase MARK1 (Homo sapiens, UniProt Q9P0L2); assay: Inhibition of human wild type MARK1 using RBER-CHKtide as substrate preincubated for 2 hrs followed by ATP addition and measured every 2 mins for […] by spectrophotometric analysis
[10] = molecular target: Rho-associated protein kinase 1 (Homo sapiens, UniProt Q13464); assay: Inhibition of human wild type ROCK1 using 3xChocktide-PKC([…] to […]) as substrate preincubated for 2 hrs followed by ATP addition and measured every 2 mins for […] by spectrophotometric analysis
[11] = molecular target: Muscle, skeletal receptor tyrosine-protein kinase (Homo sapiens, UniProt O15146); assay: Inhibition of human wild type MUSK using Poly(Ala,Glu,Lys,Tyr)6:2:5:1 as substrate preincubated for 2 hrs followed by ATP addition and measured every 2 mins for […] by spectrophotometric analysis
[12] = molecular target: Serine/threonine-protein kinase DCLK2 (Homo sapiens, UniProt Q8N568); assay: Inhibition of human wild type DCamKL2 using RBER-CHKtide as substrate preincubated for 2 hrs followed by ATP addition and measured every 2 mins for […] by spectrophotometric analysis
[13] = molecular target: Serine/threonine-protein kinase A-Raf (Homo sapiens, UniProt P10398); assay: Inhibition of human ARAF preincubated for 2 hrs followed by ATP addition and measured every 2 mins for […] by spectrophotometric analysis
[14] = molecular target: Tyrosine-protein kinase BTK (Homo sapiens, UniProt Q06187); assay: Inhibition of human wild type BTK using PolyEY as substrate preincubated for 2 hrs followed by ATP addition and measured every 2 mins for […] by spectrophotometric analysis
[15] = molecular target: Mitogen-activated protein kinase 1 (Homo sapiens, UniProt P28482); assay: Inhibition of human wild type ERK2 using RBER-CHKtide as substrate preincubated for 2 hrs followed by ATP addition and measured every 2 mins for […] by spectrophotometric analysis
[16] = molecular target: Mitogen-activated protein kinase kinase kinase kinase 4 (Homo sapiens, UniProt O95819); assay: Inhibition of human wild type HGK using Casein as substrate preincubated for 2 hrs followed by ATP addition and measured every 2 mins for […] by spectrophotometric analysis
Sequence of Mitogen-activated protein kinase kinase kinase kinase 4 (O95819 whole entry): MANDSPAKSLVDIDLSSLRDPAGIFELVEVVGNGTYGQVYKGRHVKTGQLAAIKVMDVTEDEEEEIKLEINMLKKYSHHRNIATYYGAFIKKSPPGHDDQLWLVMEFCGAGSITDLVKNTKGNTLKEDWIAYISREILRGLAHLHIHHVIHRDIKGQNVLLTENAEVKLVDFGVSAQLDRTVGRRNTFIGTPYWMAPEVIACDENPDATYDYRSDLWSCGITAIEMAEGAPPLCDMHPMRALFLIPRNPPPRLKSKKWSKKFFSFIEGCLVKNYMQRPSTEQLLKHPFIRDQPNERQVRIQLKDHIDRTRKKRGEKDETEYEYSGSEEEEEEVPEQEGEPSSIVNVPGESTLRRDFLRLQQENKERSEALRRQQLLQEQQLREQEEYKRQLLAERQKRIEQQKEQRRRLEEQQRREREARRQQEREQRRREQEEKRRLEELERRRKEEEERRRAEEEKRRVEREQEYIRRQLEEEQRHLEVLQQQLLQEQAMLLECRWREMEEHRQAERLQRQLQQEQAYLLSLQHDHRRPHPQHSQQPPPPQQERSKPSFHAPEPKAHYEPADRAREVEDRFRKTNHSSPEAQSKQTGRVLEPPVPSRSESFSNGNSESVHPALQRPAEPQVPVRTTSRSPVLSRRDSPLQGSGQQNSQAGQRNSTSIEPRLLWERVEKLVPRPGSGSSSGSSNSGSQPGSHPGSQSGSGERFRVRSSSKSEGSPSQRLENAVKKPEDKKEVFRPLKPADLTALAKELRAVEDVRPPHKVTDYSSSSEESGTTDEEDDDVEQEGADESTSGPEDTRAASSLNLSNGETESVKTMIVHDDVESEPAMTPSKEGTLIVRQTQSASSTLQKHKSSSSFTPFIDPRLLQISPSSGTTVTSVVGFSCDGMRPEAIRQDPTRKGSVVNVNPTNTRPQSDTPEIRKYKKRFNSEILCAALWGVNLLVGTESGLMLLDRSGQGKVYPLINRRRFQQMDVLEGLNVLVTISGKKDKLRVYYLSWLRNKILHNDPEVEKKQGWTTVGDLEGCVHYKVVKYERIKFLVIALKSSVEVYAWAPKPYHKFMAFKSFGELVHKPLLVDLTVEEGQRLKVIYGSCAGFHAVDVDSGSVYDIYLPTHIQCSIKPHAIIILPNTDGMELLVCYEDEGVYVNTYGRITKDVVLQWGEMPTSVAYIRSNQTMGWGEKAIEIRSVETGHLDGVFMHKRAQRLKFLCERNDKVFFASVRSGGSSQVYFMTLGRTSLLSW

Sequence of Rho-associated protein kinase 1 (Q13464 whole entry): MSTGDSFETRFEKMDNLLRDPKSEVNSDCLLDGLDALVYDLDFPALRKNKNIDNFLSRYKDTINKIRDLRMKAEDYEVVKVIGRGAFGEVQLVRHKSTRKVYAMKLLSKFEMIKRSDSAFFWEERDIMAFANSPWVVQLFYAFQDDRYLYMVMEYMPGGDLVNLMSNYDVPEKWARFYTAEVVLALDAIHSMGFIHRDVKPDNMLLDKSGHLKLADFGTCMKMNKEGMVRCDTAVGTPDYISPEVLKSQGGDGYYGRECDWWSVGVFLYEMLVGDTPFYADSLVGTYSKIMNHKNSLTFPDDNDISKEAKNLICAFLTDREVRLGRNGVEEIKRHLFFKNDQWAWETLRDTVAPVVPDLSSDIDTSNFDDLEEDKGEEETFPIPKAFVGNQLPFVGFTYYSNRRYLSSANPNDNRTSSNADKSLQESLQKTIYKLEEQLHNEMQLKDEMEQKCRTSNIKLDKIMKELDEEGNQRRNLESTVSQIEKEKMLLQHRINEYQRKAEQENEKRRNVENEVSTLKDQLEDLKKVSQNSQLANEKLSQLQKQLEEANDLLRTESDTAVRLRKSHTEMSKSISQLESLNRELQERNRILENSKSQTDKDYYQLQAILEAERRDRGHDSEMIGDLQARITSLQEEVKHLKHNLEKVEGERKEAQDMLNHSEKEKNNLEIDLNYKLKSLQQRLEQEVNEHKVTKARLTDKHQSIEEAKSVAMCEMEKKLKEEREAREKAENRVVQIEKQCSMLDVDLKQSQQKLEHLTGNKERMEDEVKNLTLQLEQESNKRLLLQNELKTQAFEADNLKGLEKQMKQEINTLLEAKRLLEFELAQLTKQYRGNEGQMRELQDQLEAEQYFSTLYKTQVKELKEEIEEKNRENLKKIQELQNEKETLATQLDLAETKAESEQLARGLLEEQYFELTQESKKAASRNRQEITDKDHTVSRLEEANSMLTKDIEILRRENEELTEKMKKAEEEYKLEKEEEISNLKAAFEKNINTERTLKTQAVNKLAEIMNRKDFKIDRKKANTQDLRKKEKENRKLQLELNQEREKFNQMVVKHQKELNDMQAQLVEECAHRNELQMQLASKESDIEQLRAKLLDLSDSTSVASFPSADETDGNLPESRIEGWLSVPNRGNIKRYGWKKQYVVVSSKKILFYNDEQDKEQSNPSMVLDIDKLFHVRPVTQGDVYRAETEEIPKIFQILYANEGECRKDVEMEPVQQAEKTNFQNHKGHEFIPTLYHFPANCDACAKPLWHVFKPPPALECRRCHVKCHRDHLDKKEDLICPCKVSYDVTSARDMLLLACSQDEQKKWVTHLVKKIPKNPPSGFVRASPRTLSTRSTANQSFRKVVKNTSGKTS
Sequence of Maternal embryonic leucine zipper kinase (Q14680 whole entry): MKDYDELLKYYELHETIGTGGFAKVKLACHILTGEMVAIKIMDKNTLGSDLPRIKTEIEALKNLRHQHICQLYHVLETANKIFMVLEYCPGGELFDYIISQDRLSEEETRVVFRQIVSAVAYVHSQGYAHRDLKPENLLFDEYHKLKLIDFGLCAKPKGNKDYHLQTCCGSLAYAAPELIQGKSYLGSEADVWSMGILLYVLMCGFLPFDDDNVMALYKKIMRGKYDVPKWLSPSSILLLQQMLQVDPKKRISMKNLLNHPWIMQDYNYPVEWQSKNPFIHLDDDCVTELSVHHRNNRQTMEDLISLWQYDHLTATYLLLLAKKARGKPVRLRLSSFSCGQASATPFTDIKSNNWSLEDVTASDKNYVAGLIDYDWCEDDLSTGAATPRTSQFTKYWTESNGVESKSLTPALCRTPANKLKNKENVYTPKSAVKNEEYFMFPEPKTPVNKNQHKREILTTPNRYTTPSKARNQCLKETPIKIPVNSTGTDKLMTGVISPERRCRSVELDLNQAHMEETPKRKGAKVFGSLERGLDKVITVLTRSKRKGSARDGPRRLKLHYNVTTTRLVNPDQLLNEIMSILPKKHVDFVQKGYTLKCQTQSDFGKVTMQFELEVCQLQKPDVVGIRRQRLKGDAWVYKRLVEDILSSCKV
Sequence of Mitogen-activated protein kinase 1 (P28482 whole entry): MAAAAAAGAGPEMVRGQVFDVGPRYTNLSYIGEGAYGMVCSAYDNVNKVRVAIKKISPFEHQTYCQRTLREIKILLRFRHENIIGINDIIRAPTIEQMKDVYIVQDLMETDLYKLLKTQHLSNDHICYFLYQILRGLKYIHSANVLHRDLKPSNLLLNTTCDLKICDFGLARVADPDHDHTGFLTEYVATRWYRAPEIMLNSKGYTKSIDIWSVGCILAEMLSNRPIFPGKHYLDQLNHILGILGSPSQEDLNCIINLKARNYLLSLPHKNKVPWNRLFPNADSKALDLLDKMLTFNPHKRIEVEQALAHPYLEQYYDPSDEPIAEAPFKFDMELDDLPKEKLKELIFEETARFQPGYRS
Sequence of Tyrosine-protein kinase BTK (Q06187 whole entry): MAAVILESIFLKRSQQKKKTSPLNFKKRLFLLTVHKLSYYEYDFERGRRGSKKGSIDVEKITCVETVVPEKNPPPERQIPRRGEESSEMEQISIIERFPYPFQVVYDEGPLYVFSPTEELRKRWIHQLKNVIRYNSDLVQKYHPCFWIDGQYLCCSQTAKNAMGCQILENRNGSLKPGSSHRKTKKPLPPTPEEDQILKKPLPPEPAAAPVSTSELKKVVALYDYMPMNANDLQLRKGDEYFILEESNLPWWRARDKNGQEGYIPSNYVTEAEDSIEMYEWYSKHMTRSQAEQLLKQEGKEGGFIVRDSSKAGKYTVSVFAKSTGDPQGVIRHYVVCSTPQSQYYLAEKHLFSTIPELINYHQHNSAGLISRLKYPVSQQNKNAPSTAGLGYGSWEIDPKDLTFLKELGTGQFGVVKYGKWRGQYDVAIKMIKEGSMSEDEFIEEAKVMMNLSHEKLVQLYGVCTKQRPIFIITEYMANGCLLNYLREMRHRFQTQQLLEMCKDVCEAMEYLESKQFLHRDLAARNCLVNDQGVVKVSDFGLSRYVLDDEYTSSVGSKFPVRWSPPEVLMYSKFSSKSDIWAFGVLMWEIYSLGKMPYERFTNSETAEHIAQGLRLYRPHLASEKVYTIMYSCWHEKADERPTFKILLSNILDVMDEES
Sequence of Serine/threonine-protein kinase A-Raf (P10398 whole entry): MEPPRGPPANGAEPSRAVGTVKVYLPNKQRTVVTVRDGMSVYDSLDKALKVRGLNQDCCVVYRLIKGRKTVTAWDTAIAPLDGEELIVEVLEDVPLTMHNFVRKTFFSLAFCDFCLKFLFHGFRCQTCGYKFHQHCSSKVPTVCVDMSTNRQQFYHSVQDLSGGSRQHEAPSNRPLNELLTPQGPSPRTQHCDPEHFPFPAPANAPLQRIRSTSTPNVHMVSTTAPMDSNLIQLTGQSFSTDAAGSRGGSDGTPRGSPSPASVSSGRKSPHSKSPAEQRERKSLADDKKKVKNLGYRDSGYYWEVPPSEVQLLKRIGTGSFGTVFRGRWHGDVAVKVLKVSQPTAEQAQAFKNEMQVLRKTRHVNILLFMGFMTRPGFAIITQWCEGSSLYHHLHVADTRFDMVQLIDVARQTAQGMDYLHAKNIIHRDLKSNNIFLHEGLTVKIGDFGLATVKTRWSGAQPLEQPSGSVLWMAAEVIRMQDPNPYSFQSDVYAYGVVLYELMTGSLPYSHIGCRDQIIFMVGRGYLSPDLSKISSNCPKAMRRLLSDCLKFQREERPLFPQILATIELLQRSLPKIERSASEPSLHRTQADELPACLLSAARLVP

IC50 [1]: > 1000 nM
IC50 [2]: 87 nM
IC50 [3]: > 1000 nM
IC50 [4]: > 1000 nM
IC50 [5]: > 1000 nM
inhibition [6]: Active
IC50 [7]: > 1000 nM
IC50 [8]: > 1000 nM
IC50 [9]: > 1000 nM
IC50 [10]: > 1000 nM
IC50 [11]: > 1000 nM
IC50 [12]: > 1000 nM
IC50 [13]: 230 nM
IC50 [14]: 330 nM
IC50 [15]: > 1000 nM
IC50 [16]: 45 nM
Structure (SMILES): CNC(=O)c1cc(Oc2ccc(NC(=O)Nc3cc(C(C)(C)C)nn3-c3ccc4ncccc4c3)c(F)c2)ccn1 [REBASTINIB]
